Experimental data as given in ChEMBL document CHEMBL4725320 (Bioorg Med Chem Lett, 2020).
pEC50: −log10 of the molar value.

biological target: T1, Nuclear receptor subfamily 1 group D member 1 (Homo sapiens, UniProt P20393); experiment: Agonist activity at Rev-Erb alpha (unknown origin) by FRET assay; assay type: single protein
T1 sequence (P20393 whole entry): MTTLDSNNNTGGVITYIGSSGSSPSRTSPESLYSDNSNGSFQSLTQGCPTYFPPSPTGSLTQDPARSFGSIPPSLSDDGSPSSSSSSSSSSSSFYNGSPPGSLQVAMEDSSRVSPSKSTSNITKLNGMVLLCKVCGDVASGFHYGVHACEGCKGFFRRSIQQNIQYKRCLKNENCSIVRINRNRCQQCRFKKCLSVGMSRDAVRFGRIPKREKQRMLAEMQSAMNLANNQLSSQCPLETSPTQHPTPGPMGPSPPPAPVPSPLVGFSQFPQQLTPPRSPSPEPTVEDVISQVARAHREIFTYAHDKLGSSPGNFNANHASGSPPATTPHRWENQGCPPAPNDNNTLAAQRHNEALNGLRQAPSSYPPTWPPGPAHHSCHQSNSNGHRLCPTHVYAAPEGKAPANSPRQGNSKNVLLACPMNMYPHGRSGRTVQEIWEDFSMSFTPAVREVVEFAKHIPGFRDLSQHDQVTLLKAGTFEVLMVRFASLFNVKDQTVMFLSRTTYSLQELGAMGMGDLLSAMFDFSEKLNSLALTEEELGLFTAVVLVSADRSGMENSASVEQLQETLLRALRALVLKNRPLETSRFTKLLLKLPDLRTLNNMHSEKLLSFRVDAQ

pEC50 | SMILES
> 5.30 | FC(F)(F)c1ccc(-c2cncnc2)c(Oc2ccc3nnc(Cl)n3n2)c1
7.17 | CC(C)(C)Oc1ccc(OC[C@@H]2Cc3cc(F)ccc3CN2C(=O)c2cccc3ccccc23)cc1
5.26 | FC(F)(F)c1ccc(-c2ccc3ncc(Cl)n3c2)c(Oc2nn3ccnc3c3ccsc23)c1
5.95 | Cc1cc(F)ccc1-c1ccc(C(F)(F)F)cc1Oc1nn(C)c(=O)c2ccsc12
6.28 | Cn1nc(Oc2cc(C(F)(F)F)ccc2-c2ccsc2Cl)c2sccc2c1=O
> 6.00 | FC(F)(F)c1ccc(-c2cccnc2)c(Oc2ccc3nnc(Cl)n3n2)c1

More lines, now with the values behind:

SMILES | pEC50
Cc1cc(Cl)cc(CN(Cc2ccc(Cl)cc2)Cc2ccc([N+](=O)[O-])s2)c1 | 7.30
CCCCCNC(=O)N1CCC(CN(Cc2ccc(Cl)cc2)Cc2ccc([N+](=O)[O-])s2)C1 (stereo not given) [SR9011] | 6.15

biological target: T1, Nuclear receptor subfamily 1 group D member 1; experiment: Inverse agonist activity at Rev-Erb alpha LBD (unknown origin) by FRET assay

pEC50 | SMILES
6.82 | COCCNc1oc(-c2ccc(N(C)Cc3ccc(Cl)cc3)cc2)nc1C#N

biological target: Nuclear receptor subfamily 1 group D member 2 (Homo sapiens) (UniProt Q14995); experiment: Antagonist activity at Rev-Erb beta (unknown origin) by RORE-luciferase reporter assay
Sequence (Q14995 whole entry, looked up): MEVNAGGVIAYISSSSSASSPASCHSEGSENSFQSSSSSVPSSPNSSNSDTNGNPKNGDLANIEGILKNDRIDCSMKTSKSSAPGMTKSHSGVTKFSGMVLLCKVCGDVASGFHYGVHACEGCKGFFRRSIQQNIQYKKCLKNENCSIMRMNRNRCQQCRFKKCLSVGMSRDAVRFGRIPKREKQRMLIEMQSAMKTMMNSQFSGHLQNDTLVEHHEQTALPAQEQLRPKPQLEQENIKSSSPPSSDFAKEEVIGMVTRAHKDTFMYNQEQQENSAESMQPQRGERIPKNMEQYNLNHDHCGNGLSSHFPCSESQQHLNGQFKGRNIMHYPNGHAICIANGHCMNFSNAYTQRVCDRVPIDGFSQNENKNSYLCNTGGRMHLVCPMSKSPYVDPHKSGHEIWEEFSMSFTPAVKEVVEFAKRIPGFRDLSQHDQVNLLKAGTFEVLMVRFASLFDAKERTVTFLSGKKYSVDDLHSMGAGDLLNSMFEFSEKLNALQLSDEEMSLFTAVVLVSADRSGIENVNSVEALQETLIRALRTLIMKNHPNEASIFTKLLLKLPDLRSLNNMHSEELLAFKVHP

pEC50 | SMILES
4.52 | CN1CCN(Cc2cc(CNC3(c4ccccc4F)CCCC3)ccc2O)CC1

biological target: T1, Nuclear receptor subfamily 1 group D member 1; experiment: Antagonist activity at Rev-Erb alpha (unknown origin) by BMAL1-luciferase reporter assay

pEC50 | SMILES
6.33 | CCOC(=O)C1Cc2ccccc2CN1C(=O)c1ccc(SC)s1 (stereo not given)
5.69 | Cc1cc(Cl)cc(CN(Cc2ccc(Cl)cc2)Cc2ccc([N+](=O)[O-])s2)c1
5.89 | CCOC(=O)C1Cc2ccccc2CN1C(=O)c1ccc(C)o1 (stereo not given)
5.89 | O=C(Nc1ccccc1)N1CCC(CN(Cc2ccc(Cl)cc2)Cc2ccc([N+](=O)[O-])s2)CC1

biological target: T1, Nuclear receptor subfamily 1 group D member 1; experiment: Agonist activity at Rev-Erb alpha (unknown origin) by BMAL1-luciferase reporter assay

SMILES | pEC50
O=C(c1cccc2ccccc12)N1Cc2ccccc2CC1CNCc1ccccc1 (stereo not given) | 5.52
